Test results taken from patent publication US9006250B2, “4-amino-6-(heterocyclic)picolinates and 6-amino-2-(heterocyclic)pyrimidine-4-carboxylates and their use as herbicides” (Dow AgroSciences, LLC, priority 2013, dated 2015).

What was measured:
Test in all cases: Post-Emergent Test II herbicidal activity
Format in all cases: in vivo
[1] = system: ORYSA: rice (Oryza sativa); conditions: post-emergence, 336 h, 14 days, read-out: Visual Growth Reduction (%) 14 Days After Application ORYSA; for pest or weed control at 35 g/ha: 35 g ai/ha; for pest or weed control at 70 g/ha: 70 g ai/ha; for pest or weed control at 140 g/ha: 140 g ai/ha
Procedure: (§1) Post-Emergent Test II: Seeds or nutlets of the desired test plant species were planted in Sun Gro Metro-Mix® 360 planting mixture, which typically has a pH of 6.0 to 6.8 and an organic matter content of about 30 percent, in plastic pots with a surface area of 64 square centimeters. When required to ensure good germination and healthy plants, a fungicide treatment and/or other chemical or physical treatment was applied. The plants were grown for 7-21 d in a greenhouse with an approximate 15 h photoperiod which was maintained at about 23-29° C. during the day and 22-28° C. during the night. Nutrients and water were added on a regular basis and supplemental lighting was provided with overhead metal halide 1000-Watt lamps as necessary. The plants were employed for testing when they reached the first or second true leaf stage.
(§2) A weighed amount, determined by the highest rate to be tested, of each test compound was placed in a 25 mL glass vial and was dissolved in 4 mL of a 97:3 v/v mixture of acetone and DMSO to obtain concentrated stock solutions. […] The concentrated stock solutions obtained were diluted with 20 mL of an aqueous mixture containing acetone, water, isopropyl alcohol, DMSO, Atplus 411F crop oil concentrate, and Triton® X-155 surfactant in a 48.5:39:10:1.5:1.0:0.02 v/v ratio to obtain spray solutions containing the highest application rates. Additional application rates were obtained by serial dilution of 12 mL of the high rate solution into a solution containing 2 mL of 97:3 v/v mixture of acetone and DMSO and 10 mL of an aqueous mixture containing acetone, water, isopropyl alcohol, DMSO, Atplus 411F crop oil concentrate, and Triton X®-155 surfactant in a 48.5:39:10:1.5:1.0:0.02 v/v ratio to obtain ½×, ¼×, ⅛× and 1/16× rates of the high rate. Compound requirements are based upon a 12 mL application volume at a rate of 187 liters per hectare (L/ha). Formulated compounds were applied to the plant material with an overhead Mandel track sprayer equipped with 8002E nozzles calibrated to deliver 187 L/ha over an application area of 0.503 square meters at a spray height of 18 inches […] above the average plant canopy height. Control plants were sprayed in the same manner with the solvent blank.
(§3) The treated plants and control plants were placed in a greenhouse as described above and watered by subirrigation to prevent wash-off of the test compounds. After 14 d, the condition of the test plants as compared with that of the untreated plants was determined visually and scored on a scale of 0 to 100 percent where 0 corresponds to no injury and 100 corresponds to complete kill.

[2] = system: ECHCG: barnyardgrass (Echinochloa crus-galli); conditions: post-emergence, 336 h, 14 days, read-out: Visual Growth Reduction (%) 14 Days After Application ECHCG; for pest or weed control at 35 g/ha: 35 g ai/ha; for pest or weed control at 70 g/ha: 70 g ai/ha; for pest or weed control at 140 g/ha: 140 g ai/ha
Procedure: as §1, §2, §3

[3] = system: SETFA: giant foxtail (Setaria faberi); conditions: post-emergence, 336 h, 14 days, read-out: Visual Growth Reduction (%) 14 Days After Application SETFA; for pest or weed control at 35 g/ha: 35 g ai/ha; for pest or weed control at 70 g/ha: 70 g ai/ha; for pest or weed control at 140 g/ha: 140 g ai/ha
Procedure: as §1, §2, §3

[4] = system: ZEAMX: maize, corn (Zea mays); conditions: post-emergence, 336 h, 14 days, read-out: Visual Growth Reduction (%) 14 Days After Application ZEAMX; for pest or weed control at 35 g/ha: 35 g ai/ha; for pest or weed control at 70 g/ha: 70 g ai/ha; for pest or weed control at 140 g/ha: 140 g ai/ha
Procedure: as §1, §2, §3

[5] = system: EPHHL: wild poinsettia (Euphorbia heterophylla); conditions: post-emergence, 336 h, 14 days, read-out: Visual Growth Reduction (%) 14 Days After Application EPHHL; for pest or weed control at 35 g/ha: 35 g ai/ha; for pest or weed control at 70 g/ha: 70 g ai/ha; for pest or weed control at 140 g/ha: 140 g ai/ha
Procedure: as §1, §2, §3

[6] = system: BRSNN: oilseed rape, canola (Brassica napus); conditions: post-emergence, 336 h, 14 days, read-out: Visual Growth Reduction (%) 14 Days After Application BRSNN; for pest or weed control at 35 g/ha: 35 g ai/ha; for pest or weed control at 70 g/ha: 70 g ai/ha; for pest or weed control at 140 g/ha: 140 g ai/ha
Procedure: as §1, §2, §3

[7] = system: CHEAL: lambsquarters (Chenopodium album); conditions: post-emergence, 336 h, 14 days, read-out: Visual Growth Reduction (%) 14 Days After Application CHEAL; for pest or weed control at 35 g/ha: 35 g ai/ha; for pest or weed control at 70 g/ha: 70 g ai/ha; for pest or weed control at 140 g/ha: 140 g ai/ha
Procedure: as §1, §2, §3

[8] = system: TRZAS: wheat, spring (Triticum aestivum); conditions: post-emergence, 336 h, 14 days, read-out: Visual Growth Reduction (%) 14 Days After Application TRZAS; for pest or weed control at 35 g/ha: 35 g ai/ha; for pest or weed control at 70 g/ha: 70 g ai/ha; for pest or weed control at 140 g/ha: 140 g ai/ha
Procedure: as §1, §2, §3

[9] = system: ABUTH: velvetleaf (Abutilon theophrasti); conditions: post-emergence, 336 h, 14 days, read-out: Visual Growth Reduction (%) 14 Days After Application ABUTH; for pest or weed control at 35 g/ha: 35 g ai/ha; for pest or weed control at 70 g/ha: 70 g ai/ha; for pest or weed control at 140 g/ha: 140 g ai/ha
Procedure: as §1, §2, §3

[10] = system: HELAN: sunflower (Helianthus annuus); conditions: post-emergence, 336 h, 14 days, read-out: Visual Growth Reduction (%) 14 Days After Application HELAN; for pest or weed control at 35 g/ha: 35 g ai/ha; for pest or weed control at 70 g/ha: 70 g ai/ha; for pest or weed control at 140 g/ha: 140 g ai/ha
Procedure: as §1, §2, §3

[11] = system: CYPES: yellow nutsedge (Cyperus esculentus); conditions: post-emergence, 336 h, 14 days, read-out: Visual Growth Reduction (%) 14 Days After Application CYPES; for pest or weed control at 35 g/ha: 35 g ai/ha; for pest or weed control at 70 g/ha: 70 g ai/ha; for pest or weed control at 140 g/ha: 140 g ai/ha
Procedure: as §1, §2, §3

[12] = system: AMARE: redroot pigweed (Amaranthus retroflexus); conditions: post-emergence, 336 h, 14 days, read-out: Visual Growth Reduction (%) 14 Days After Application AMARE
Procedure: as §1, §2, §3

SMILES: COc1cc2nonc2cc1-c1cc(N)c(Cl)c(C(=O)O)n1 [Compound 5, 4-Amino-3-chloro-6-(6-methoxybenzo[c][1,2,5]oxadiazol-5-yl)picolinic acid]
- pest or weed control at 35 g/ha [1]: 0 to 29%
- pest or weed control at 70 g/ha [1]: 0 to 29%
- pest or weed control at 140 g/ha [1]: 0 to 29%
- pest or weed control at 35 g/ha [2]: 0 to 29%
- pest or weed control at 70 g/ha [2]: 0 to 29%
- pest or weed control at 140 g/ha [2]: 0 to 29%
- pest or weed control at 35 g/ha [3]: 0 to 29%
- pest or weed control at 70 g/ha [3]: 0 to 29%
- pest or weed control at 140 g/ha [3]: 0 to 29%
- pest or weed control at 35 g/ha [4]: 0 to 29%
- pest or weed control at 70 g/ha [4]: 0 to 29%
- pest or weed control at 140 g/ha [4]: 0 to 29%
- pest or weed control at 35 g/ha [5]: 0 to 29%
- pest or weed control at 70 g/ha [5]: 0 to 29%
- pest or weed control at 140 g/ha [5]: 0 to 29%
- pest or weed control at 35 g/ha [6]: 0 to 29%
- pest or weed control at 70 g/ha [6]: 0 to 29%
- pest or weed control at 140 g/ha [6]: 0 to 29%
- pest or weed control at 35 g/ha [7]: 0 to 29%
- pest or weed control at 70 g/ha [7]: 0 to 29%
- pest or weed control at 140 g/ha [7]: 0 to 29%
- pest or weed control at 35 g/ha [8]: 0 to 29%
- pest or weed control at 70 g/ha [8]: 0 to 29%
- pest or weed control at 140 g/ha [8]: 0 to 29%
- pest or weed control at 35 g/ha [9]: 0 to 29%
- pest or weed control at 70 g/ha [9]: 0 to 29%
- pest or weed control at 140 g/ha [9]: 0 to 29%
- pest or weed control at 35 g/ha [10]: 0 to 29%
- pest or weed control at 70 g/ha [10]: 0 to 29%
- pest or weed control at 140 g/ha [10]: 0 to 29%
- pest or weed control at 35 g/ha [11]: 0 to 29%
- pest or weed control at 70 g/ha [11]: 0 to 29%
- pest or weed control at 140 g/ha [11]: 0 to 29%

SMILES: COC(=O)c1nc(-c2cc3nonc3cc2F)nc(N)c1OC [Compound 10, Methyl 6-amino-2-(6-fluorobenzo[c][1,2,5]oxadiazol-5-yl)-5-methoxypyrimidine-4-carboxylate]
- pest or weed control at 35 g/ha [1]: 0 to 29%
- pest or weed control at 70 g/ha [1]: 0 to 29%
- pest or weed control at 140 g/ha [1]: 0 to 29%
- pest or weed control at 35 g/ha [2]: 0 to 29%
- pest or weed control at 70 g/ha [2]: 0 to 29%
- pest or weed control at 140 g/ha [2]: 0 to 29%
- pest or weed control at 35 g/ha [3]: 0 to 29%
- pest or weed control at 70 g/ha [3]: 0 to 29%
- pest or weed control at 140 g/ha [3]: 0 to 29%
- pest or weed control at 35 g/ha [4]: 0 to 29%
- pest or weed control at 70 g/ha [4]: 0 to 29%
- pest or weed control at 140 g/ha [4]: 0 to 29%
- pest or weed control at 35 g/ha [5]: 45 to 59%
- pest or weed control at 70 g/ha [5]: 60 to 74%
- pest or weed control at 140 g/ha [5]: 75 to 84%
- pest or weed control at 35 g/ha [6]: 60 to 74%
- pest or weed control at 70 g/ha [6]: 75 to 84%
- pest or weed control at 140 g/ha [6]: 75 to 84%
- pest or weed control at 35 g/ha [7]: 0 to 29%
- pest or weed control at 70 g/ha [7]: 0 to 29%
- pest or weed control at 140 g/ha [7]: 0 to 29%
- pest or weed control at 35 g/ha [8]: 0 to 29%
- pest or weed control at 70 g/ha [8]: 0 to 29%
- pest or weed control at 140 g/ha [8]: 0 to 29%
- pest or weed control at 35 g/ha [9]: 0 to 29%
- pest or weed control at 70 g/ha [9]: 0 to 29%
- pest or weed control at 140 g/ha [9]: 0 to 29%
- pest or weed control at 35 g/ha [10]: 0 to 29%
- pest or weed control at 70 g/ha [10]: 0 to 29%
- pest or weed control at 35 g/ha [11]: 0 to 29%
- pest or weed control at 70 g/ha [11]: 0 to 29%
- pest or weed control at 140 g/ha [11]: 0 to 29%

SMILES: Nc1c(F)c(-c2ccc3nonc3c2)nc(C(=O)O)c1Cl [Compound 2, 4-Amino-6-(benzo[c][1,2,5]oxadiazol-5-yl)-3-chloro-5-fluoropicolinic acid]
- pest or weed control at 35 g/ha [1]: 0 to 29%
- pest or weed control at 70 g/ha [1]: 0 to 29%
- pest or weed control at 140 g/ha [1]: 0 to 29%
- pest or weed control at 35 g/ha [2]: 60 to 74%
- pest or weed control at 70 g/ha [2]: 75 to 84%
- pest or weed control at 140 g/ha [2]: 75 to 84%
- pest or weed control at 35 g/ha [4]: 60 to 74%
- pest or weed control at 70 g/ha [4]: 60 to 74%
- pest or weed control at 140 g/ha [4]: 60 to 74%
- pest or weed control at 35 g/ha [5]: 60 to 74%
- pest or weed control at 70 g/ha [5]: 60 to 74%
- pest or weed control at 140 g/ha [5]: 60 to 74%
- pest or weed control at 35 g/ha [6]: 60 to 74%
- pest or weed control at 70 g/ha [6]: 75 to 84%
- pest or weed control at 140 g/ha [6]: 75 to 84%
- pest or weed control at 35 g/ha ([12]; 35 g ai/ha): 95 to 100%
- pest or weed control at 70 g/ha ([12]; 70 g ai/ha): 95 to 100%
- pest or weed control at 140 g/ha ([12]; 140 g ai/ha): 95 to 100%
- pest or weed control at 35 g/ha [7]: 95 to 100%
- pest or weed control at 70 g/ha [7]: 95 to 100%
- pest or weed control at 140 g/ha [7]: 95 to 100%
- pest or weed control at 35 g/ha [8]: 60 to 74%
- pest or weed control at 70 g/ha [8]: 60 to 74%
- pest or weed control at 140 g/ha [8]: 60 to 74%
- pest or weed control at 35 g/ha [9]: 75 to 84%
- pest or weed control at 70 g/ha [9]: 75 to 84%
- pest or weed control at 140 g/ha [9]: 85 to 94%
- pest or weed control at 35 g/ha [10]: 85 to 94%
- pest or weed control at 70 g/ha [10]: 85 to 94%
- pest or weed control at 140 g/ha [10]: 95 to 100%
- pest or weed control at 35 g/ha [11]: 0 to 29%
- pest or weed control at 70 g/ha [11]: 0 to 29%
- pest or weed control at 140 g/ha [11]: 0 to 29%
